This passage reports MIC and Ratio results from ChEMBL document CHEMBL1153072, “Synthesis and structure-activity relationship of dicationic diaryl ethers as novel potent anti-MRSA and anti-VRE agents” (2009).

≈ marks a conversion by molar mass, not a printed value.

What all share (assay type): functional
Experiment [1] deals with Staphylococcus epidermidis. Briefly: Antibacterial activity against Staphylococcus epidermidis ATCC 12228.
The test system of a further experiment is Bacteroides fragilis. Kind of experiment: Antibacterial activity against […] ATCC 23745.
Another experiment concerns Streptococcus pneumoniae. Briefly: Antibacterial activity against Streptococcus pneumoniae ATCC 6301.
Experiment [2] is described as follows: Ratio of MIC for Candida albicans ATCC 90028 to MIC for methicillin-resistant Staphylococcus aureus ATCC 33591.
The next experiment relates to Bacillus subtilis. Kind of experiment: Antibacterial activity against Bacillus subtilis ATCC 23857.
Experiment [3] concerns Staphylococcus epidermidis. Kind of experiment: Antibacterial activity against methicillin-resistant Staphylococcus epidermidis ATCC 51625.
Experiment [4] relates to Staphylococcus aureus. Kind of experiment: Antibacterial activity against methicillin-resistant Staphylococcus aureus ATCC 33591.
In a further experiment the test system is Enterococcus faecium. Kind of experiment: Antibacterial activity against vancomycin-resistant Enterococcus faecium ATCC 700221.
In a further experiment the test system is Clostridium perfringens. Kind of experiment: Antibacterial activity against Clostridium perfringens ATCC 10388.
For experiment [5], the system named is Staphylococcus aureus. Briefly: Antibacterial activity against Staphylococcus aureus ATCC 29213.
Another experiment concerns Candida albicans. Briefly: Antifungal activity against Candida albicans ATCC 90028.
For a further experiment, the system named is Bacillus cereus. Briefly: Antibacterial activity against Bacillus cereus ATCC 11778.
The test system of experiment [6] is Staphylococcus aureus. Briefly: Antibacterial activity against multidrug resistant Staphylococcus aureus BAA-39.
In a further experiment the test system is Enterococcus faecalis. Briefly: Antibacterial activity against vancomycin-resistant Enterococcus faecalis ATCC 51575.
The nature of experiment [7]: Ratio of MIC for Candida albicans ATCC 90028 to MIC for vancomycin-resistant Enterococcus faecium ATCC 700221.

As usually defined, the MIC is the least concentration at which growth counts as inhibited. Higher therefore signals weaker potency. For `CC(C)NC(=N)c1ccc2cc(-c3ccc(Oc4ccc(-c5cc6ccc(C(=N)NC(C)C)cc6[nH]5)cc4)cc3)[nH]c2c1`, the MIC in [1] was no more than 0.06 µg/mL; in the experiment with Bacteroides fragilis, 0.125 µg/mL (≈ 0.22 µM); with Streptococcus pneumoniae, no more than 0.06 µg/mL; against Bacillus subtilis, no more than 0.06 µg/mL; in experiment [3] it was no more than 0.06 µg/mL; against Staphylococcus aureus [4], no more than 0.06 µg/mL. Moreover, the MIC against Enterococcus faecium was no more than 0.06 µg/mL; in the experiment on Clostridium perfringens, 0.5 µg/mL (≈ 0.879 µM); against Staphylococcus aureus [5] it was 0.12 µg/mL (≈ 0.211 µM); in the experiment on Candida albicans, 0.5 µg/mL (≈ 0.879 µM); against Bacillus cereus, no more than 0.06 µg/mL; in the experiment on Staphylococcus aureus [6], no more than 0.06 µg/mL. Further, the MIC against Enterococcus faecalis turned out to be 0.25 µg/mL (≈ 0.44 µM). For the same compound, in [2], the Ratio was found to be 8.
For `COc1cc(Oc2ccc(-c3nc4cc(C(=N)NC(C)C)ccc4[nH]3)cc2)ccc1-c1nc2cc(C(=N)NC(C)C)ccc2[nH]1`, the minimum inhibitory concentration (MIC) in [1] is no more than 0.06 µg/mL; against Bacteroides fragilis it was greater than 32 µg/mL; with Streptococcus pneumoniae, no more than 0.06 µg/mL; in the experiment with Bacillus subtilis, no more than 0.06 µg/mL; in experiment [3], 0.12 µg/mL (≈ 0.2 µM); in the experiment with Staphylococcus aureus [4], 0.25 µg/mL (≈ 0.416 µM). Besides, the minimal inhibitory concentration (MIC) in the experiment with Enterococcus faecium is no more than 0.06 µg/mL; against Clostridium perfringens it was 0.25 µg/mL (≈ 0.416 µM); against Staphylococcus aureus [5], 0.5 µg/mL (≈ 0.832 µM); against Candida albicans, 2 µg/mL (≈ 3.33 µM); against Bacillus cereus, 0.12 µg/mL (≈ 0.2 µM); against Staphylococcus aureus [6], 0.5 µg/mL (≈ 0.832 µM). Also, the MIC in the experiment on Enterococcus faecalis worked out at 0.5 µg/mL (≈ 0.832 µM).
Consider `N=C(c1ccc2[nH]c(-c3ccc(Oc4ccc(-c5nc6cc(C(=N)N7CCSCC7)ccc6[nH]5)cc4)cc3)nc2c1)N1CCSCC1`, for which the MIC was determined as 0.12 µg/mL (≈ 0.182 µM) in experiment [1]; 4 µg/mL (≈ 6.07 µM) against Bacteroides fragilis; 0.25 µg/mL (≈ 0.379 µM) against Streptococcus pneumoniae; 0.25 µg/mL (≈ 0.379 µM) with Bacillus subtilis; 0.25 µg/mL (≈ 0.379 µM) in experiment [3]; 0.25 µg/mL (≈ 0.379 µM) against Staphylococcus aureus [4]. In addition, the MIC against Enterococcus faecium turned out to be 0.5 µg/mL (≈ 0.759 µM); against Clostridium perfringens, 1 µg/mL (≈ 1.52 µM); against Staphylococcus aureus [5], 0.5 µg/mL (≈ 0.759 µM); in the experiment with Candida albicans, 16 µg/mL (≈ 24.3 µM); with Bacillus cereus, 0.5 µg/mL (≈ 0.759 µM); with Staphylococcus aureus [6], 0.5 µg/mL (≈ 0.759 µM). This compound also gave an MIC against Enterococcus faecalis of 0.5 µg/mL (≈ 0.759 µM). Further, the Ratio in experiment [7] and in [2] was 32 each time.
Turning to `CC(C)NC(=N)c1ccc2[nH]c(-c3ccc(Oc4ccc(-c5nc6cc(C(=N)NC(C)C)ccc6[nH]5)cn4)cc3)nc2c1`, the MIC in experiment [1] is 0.12 µg/mL (≈ 0.21 µM); against Bacteroides fragilis, greater than 32 µg/mL; against Streptococcus pneumoniae, 0.12 µg/mL (≈ 0.21 µM); with Bacillus subtilis, 0.25 µg/mL (≈ 0.437 µM); in experiment [3], 0.12 µg/mL (≈ 0.21 µM); in the experiment on Staphylococcus aureus [4], 0.5 µg/mL (≈ 0.875 µM). Besides, the minimal inhibitory concentration (MIC) is no more than 0.06 µg/mL in the experiment with Enterococcus faecium; 2 µg/mL (≈ 3.5 µM) with Clostridium perfringens; 1 µg/mL (≈ 1.75 µM) against Staphylococcus aureus [5]; 2 µg/mL (≈ 3.5 µM) with Candida albicans; 0.12 µg/mL (≈ 0.21 µM) in the experiment on Bacillus cereus; 1 µg/mL (≈ 1.75 µM) against Staphylococcus aureus [6]. The compound further gave an MIC against Enterococcus faecalis of 0.25 µg/mL (≈ 0.437 µM).
Regarding `CC1(C)S[C@@H]2[C@H](NC(=O)Cc3ccccc3)C(=O)N2[C@H]1C(=O)O` [PENICILLIN G], the MIC in experiment [1] was 32 µg/mL (≈ 95.7 µM); with Bacteroides fragilis it was 4 µg/mL (≈ 12 µM); against Streptococcus pneumoniae it was less than 0.06 µg/mL; against Bacillus subtilis, less than 0.06 µg/mL; in experiment [3], 32 µg/mL (≈ 95.7 µM); in the experiment on Staphylococcus aureus [4] it was greater than 32 µg/mL. The MIC is greater than 32 µg/mL against Enterococcus faecium; less than 0.12 µg/mL in the experiment with Clostridium perfringens; 1 µg/mL (≈ 2.99 µM) in the experiment on Staphylococcus aureus [5]; greater than 32 µg/mL against Candida albicans; greater than 4 µg/mL against Bacillus cereus; greater than 32 µg/mL against Staphylococcus aureus [6]. Besides, in the experiment on Enterococcus faecalis, 4 µg/mL (≈ 12 µM) was the least that counted as inhibitory (MIC).
As for `CCN1CCN(C(=N)c2ccc3[nH]c(-c4ccc(Oc5ccc(-c6nc7cc(C(=N)N8CCN(CC)CC8)ccc7[nH]6)cc5)cc4)nc3c2)CC1`, the MIC in experiment [1] worked out at 0.5 µg/mL (≈ 0.734 µM); against Bacteroides fragilis, 16 µg/mL (≈ 23.5 µM); against Streptococcus pneumoniae, 0.5 µg/mL (≈ 0.734 µM); in the experiment with Bacillus subtilis, 0.5 µg/mL (≈ 0.734 µM); in experiment [3] it was 0.5 µg/mL (≈ 0.734 µM); against Staphylococcus aureus [4] it was 1 µg/mL (≈ 1.47 µM). The MIC against Enterococcus faecium amounted to 1 µg/mL (≈ 1.47 µM); in the experiment with Clostridium perfringens, 16 µg/mL (≈ 23.5 µM); against Staphylococcus aureus [5] it was 1 µg/mL (≈ 1.47 µM); against Candida albicans it was 32 µg/mL (≈ 47 µM); against Bacillus cereus, 0.5 µg/mL (≈ 0.734 µM); against Staphylococcus aureus [6] it was 1 µg/mL (≈ 1.47 µM). This compound returned a minimum inhibitory concentration (MIC) in the experiment with Enterococcus faecalis of 1 µg/mL (≈ 1.47 µM).
`N=C(c1ccc2[nH]c(-c3ccc(Oc4ccc(-c5nc6cc(C(=N)N7CCCCCC7)ccc6[nH]5)cc4)cc3)nc2c1)N1CCCCCC1`: the MIC in experiment [1] came out at 0.12 µg/mL (≈ 0.184 µM); against Bacteroides fragilis, 4 µg/mL (≈ 6.15 µM); against Streptococcus pneumoniae, 0.12 µg/mL (≈ 0.184 µM); in the experiment with Bacillus subtilis it was 0.25 µg/mL (≈ 0.384 µM); in experiment [3], 0.25 µg/mL (≈ 0.384 µM); against Staphylococcus aureus [4] it was 0.25 µg/mL (≈ 0.384 µM). Besides, the MIC against Enterococcus faecium was determined as 0.5 µg/mL (≈ 0.768 µM); against Clostridium perfringens it was 2 µg/mL (≈ 3.07 µM); against Staphylococcus aureus [5], 0.25 µg/mL (≈ 0.384 µM); against Candida albicans it was 8 µg/mL (≈ 12.3 µM); against Bacillus cereus, 0.5 µg/mL (≈ 0.768 µM); in the experiment with Staphylococcus aureus [6], 0.25 µg/mL (≈ 0.384 µM). Also, the lowest concentration to inhibit growth with Enterococcus faecalis (MIC) was 0.5 µg/mL (≈ 0.768 µM).
As to `N=C(c1ccc2[nH]c(-c3ccc(Oc4ccc(-c5nc6cc(C(=N)N7CCC(N8CCCC8)CC7)ccc6[nH]5)cc4)cc3)nc2c1)N1CCC(N2CCCC2)CC1`, the MIC in experiment [1] is 1 µg/mL (≈ 1.31 µM); against Bacteroides fragilis, greater than 32 µg/mL; against Streptococcus pneumoniae, greater than 32 µg/mL; in the experiment on Bacillus subtilis, 4 µg/mL (≈ 5.26 µM); in experiment [3], 1 µg/mL (≈ 1.31 µM); with Staphylococcus aureus [4] it was 4 µg/mL (≈ 5.26 µM). For the same compound, the MIC in the experiment with Enterococcus faecium is 2 µg/mL (≈ 2.63 µM); against Clostridium perfringens it was greater than 32 µg/mL; in the experiment on Staphylococcus aureus [5], 8 µg/mL (≈ 10.5 µM); in the experiment on Candida albicans, 16 µg/mL (≈ 21 µM); in the experiment on Bacillus cereus, 1 µg/mL (≈ 1.31 µM); against Staphylococcus aureus [6], 4 µg/mL (≈ 5.26 µM). Also, the MIC in the experiment on Enterococcus faecalis worked out at 8 µg/mL (≈ 10.5 µM).
For `CC(C)NC(=N)c1ccc2[nH]c(-c3ccc(Oc4ccc(-c5nc6cc(C(=N)NC(C)C)ccc6[nH]5)cc4Cl)cc3)nc2c1`, the MIC in experiment [1] is no more than 0.06 µg/mL; in the experiment with Bacteroides fragilis, 16 µg/mL (≈ 26.4 µM); against Streptococcus pneumoniae it was no more than 0.06 µg/mL; against Bacillus subtilis, 0.12 µg/mL (≈ 0.198 µM); in [3] it was no more than 0.06 µg/mL; against Staphylococcus aureus [4], 0.25 µg/mL (≈ 0.413 µM). Moreover, the MIC was no more than 0.06 µg/mL in the experiment on Enterococcus faecium; 0.5 µg/mL (≈ 0.826 µM) against Clostridium perfringens; 0.25 µg/mL (≈ 0.413 µM) against Staphylococcus aureus [5]; 1 µg/mL (≈ 1.65 µM) with Candida albicans; 0.12 µg/mL (≈ 0.198 µM) in the experiment with Bacillus cereus; 0.25 µg/mL (≈ 0.413 µM) with Staphylococcus aureus [6]. In the experiment on Enterococcus faecalis, this compound displayed a minimal inhibitory concentration (MIC) of 0.25 µg/mL (≈ 0.413 µM).
